ChEMBL document CHEMBL4715697, “Synthesis and biological activity of benzamide DNA minor groove binders” (2016)

What was measured:
Assay type in all cases: functional
[1] = test system: K562; assay: Growth inhibition of human K562 cells assessed as cell growth at 0.01 uM incubated for 48 hrs by sulforhodamine B assay relative to control; details: read-out: Activity
[2] = test system: SR; assay: Growth inhibition of human SR cells assessed as cell growth at 0.01 uM incubated for 48 hrs by sulforhodamine B assay relative to control; details: read-out: Activity
[3] = test system: EKVX; assay: Growth inhibition of human EKVX cells assessed as cell growth at 0.01 uM incubated for 48 hrs by sulforhodamine B assay relative to control; details: read-out: Activity
[4] = test system: SW-620; assay: Growth inhibition of human SW-620 cells assessed as cell growth at 0.01 uM incubated for 48 hrs by sulforhodamine B assay relative to control; details: read-out: Activity
[5] = test system: Malme-3M; assay: Growth inhibition of human Malme-3M cells assessed as cell growth at 0.01 uM incubated for 48 hrs by sulforhodamine B assay relative to control; details: read-out: Activity
[6] = test system: SK-OV-3; assay: Growth inhibition of human SK-OV-3 cells assessed as cell growth at 0.01 uM incubated for 48 hrs by sulforhodamine B assay relative to control; details: read-out: Activity
[7] = test system: SN12C; assay: Growth inhibition of human SN12C cells assessed as cell growth at 0.01 uM incubated for 48 hrs by sulforhodamine B assay relative to control; details: read-out: Activity
[8] = test system: RPMI-8226; assay: Growth inhibition of human RPMI-8226 cells assessed as cell growth at 0.1 uM incubated for 48 hrs by sulforhodamine B assay relative to control; details: read-out: Activity
[9] = test system: SF-268; assay: Growth inhibition of human SF-268 cells assessed as cell growth at 0.1 uM incubated for 48 hrs by sulforhodamine B assay relative to control; details: read-out: Activity
[10] = test system: M14; assay: Growth inhibition of human M14 cells assessed as cell growth at 0.1 uM incubated for 48 hrs by sulforhodamine B assay relative to control; details: read-out: Activity
[11] = test system: SK-MEL-2; assay: Growth inhibition of human SK-MEL-2 cells assessed as cell growth at 0.1 uM incubated for 48 hrs by sulforhodamine B assay relative to control; details: read-out: Activity
[12] = test system: NCI/ADR-RES; assay: Growth inhibition of human NCI/ADR-RES cells assessed as cell growth at 0.1 uM incubated for 48 hrs by sulforhodamine B assay relative to control; details: read-out: Activity
[13] = test system: RXF 393; assay: Growth inhibition of human RXF 393 cells assessed as cell growth at 0.1 uM incubated for 48 hrs by sulforhodamine B assay relative to control; details: read-out: Activity
[14] = test system: T47D; assay: Growth inhibition of human T47D cells assessed as cell growth at 0.1 uM incubated for 48 hrs by sulforhodamine B assay relative to control; details: read-out: Activity
[15] = test system: SF-295; assay: Growth inhibition of human SF-295 cells assessed as cell growth at 1 uM incubated for 48 hrs by sulforhodamine B assay relative to control; details: read-out: Activity
[16] = test system: SF-539; assay: Growth inhibition of human SF-539 cells assessed as cell growth at 1 uM incubated for 48 hrs by sulforhodamine B assay relative to control; details: read-out: Activity
[17] = test system: M14; assay: Growth inhibition of human M14 cells assessed as cell growth at 1 uM incubated for 48 hrs by sulforhodamine B assay relative to control; details: read-out: Activity
[18] = test system: SK-MEL-2; assay: Growth inhibition of human SK-MEL-2 cells assessed as cell growth at 1 uM incubated for 48 hrs by sulforhodamine B assay relative to control; details: read-out: Activity
[19] = test system: OVCAR-3; assay: Growth inhibition of human OVCAR-3 cells assessed as cell growth at 1 uM incubated for 48 hrs by sulforhodamine B assay relative to control; details: read-out: Activity
[20] = test system: SK-OV-3; assay: Growth inhibition of human SK-OV-3 cells assessed as cell growth at 1 uM incubated for 48 hrs by sulforhodamine B assay relative to control; details: read-out: Activity
[21] = test system: RXF 393; assay: Growth inhibition of human RXF 393 cells assessed as cell growth at 1 uM incubated for 48 hrs by sulforhodamine B assay relative to control; details: read-out: Activity
[22] = test system: CCRF-CEM; assay: Growth inhibition of human CCRF-CEM cells assessed as cell growth at 100 uM incubated for 48 hrs by sulforhodamine B assay relative to control; details: read-out: Activity
[23] = test system: HCC 2998; assay: Growth inhibition of human HCC 2998 cells assessed as cell growth at 100 uM incubated for 48 hrs by sulforhodamine B assay relative to control; details: read-out: Activity
[24] = test system: OVCAR-5; assay: Growth inhibition of human OVCAR-5 cells assessed as cell growth at 100 uM incubated for 48 hrs by sulforhodamine B assay relative to control; details: read-out: Activity
[25] = test system: K562; assay: Growth inhibition of human K562 cells incubated for 48 hrs by sulforhodamine B assay
[26] = test system: MOLT-4; assay: Growth inhibition of human MOLT-4 cells incubated for 48 hrs by sulforhodamine B assay
[27] = test system: KM12; assay: Growth inhibition of human KM12 cells incubated for 48 hrs by sulforhodamine B assay
[28] = test system: SF-295; assay: Growth inhibition of human SF-295 cells incubated for 48 hrs by sulforhodamine B assay
[29] = test system: SF-539; assay: Growth inhibition of human SF-539 cells incubated for 48 hrs by sulforhodamine B assay
[30] = test system: SNB-19; assay: Growth inhibition of human SNB-19 cells incubated for 48 hrs by sulforhodamine B assay
[31] = test system: SK-MEL-5; assay: Growth inhibition of human SK-MEL-5 cells incubated for 48 hrs by sulforhodamine B assay
[32] = test system: UACC-257; assay: Growth inhibition of human UACC-257 cells incubated for 48 hrs by sulforhodamine B assay
[33] = test system: MDA-MB-231; assay: Growth inhibition of human MDA-MB-231 cells incubated for 48 hrs by sulforhodamine B assay
[34] = read-out: LC50 (the source's name)
[35] = read-out: pLC50 (the source's name) (converted)

CC(=O)Nc1cc(CO[Si](C)(C)C(C)(C)C)cc(NC(=O)c2ccc(C(=O)Nc3cccc(NC(=O)CCCN(C)C)c3)cc2)c1
112%: growth at 1 µM [18] | growth at 100 µM [22]
79%: growth at 100 µM [24]
100%: growth at 0.01 µM [4] | growth at 0.1 µM [9] | growth at 1 µM [16]
101%: growth at 0.01 µM [3] | growth at 0.1 µM [8] | growth at 1 µM [17]
95%: growth at 0.1 µM [10]
> 75.9 µM: GI50 ([25]; read-out: pGI50 (converted)) | CC50 [25, 35] | TGI ([25]; read-out: pTGI) | GI50 ([26]; read-out: pGI50 (converted)) | CC50 [26, 35] | TGI ([26]; read-out: pTGI) | GI50 ([27]; read-out: pGI50 (converted)) | CC50 [27, 35] | TGI ([27]; read-out: pTGI) | GI50 ([28]; read-out: pGI50 (converted)) | LC50 ([28]; read-out: pLC50 (converted)) | TGI ([28]; read-out: pTGI) | GI50 ([29]; read-out: pGI50 (converted)) | CC50 [29, 35] | TGI ([29]; read-out: pTGI) | GI50 ([30]; read-out: pGI50 (converted)) | CC50 [30, 35] | TGI ([30]; read-out: pTGI) | GI50 ([31]; read-out: pGI50 (converted)) | LC50 ([31]; read-out: pLC50 (converted)) | TGI ([31]; read-out: pTGI) | GI50 ([32]; read-out: pGI50 (converted)) | LC50 ([32]; read-out: pLC50 (converted)) | TGI ([32]; read-out: pTGI) | GI50 ([33]; read-out: pGI50 (converted)) | CC50 [33, 35] | TGI ([33]; read-out: pTGI)
109%: growth at 1 µM [19]
96%: growth at 0.01 µM [7]
107%: growth at 1 µM [20]
99%: growth at 0.01 µM [5]
106%: growth at 0.01 µM [2] | growth at 1 µM [21]
93%: growth at 0.01 µM [1] | growth at 100 µM [23]
97%: growth at 0.1 µM [12] | growth at 0.1 µM [14]
98%: growth at 0.01 µM [6]
> 75 µM: GI50 ([25]; read-out: GI50) | CC50 [25, 34] | TGI ([25]; read-out: TGI) | GI50 ([26]; read-out: GI50) | CC50 [26, 34] | TGI ([26]; read-out: TGI) | GI50 ([27]; read-out: GI50) | CC50 [27, 34] | TGI ([27]; read-out: TGI) | GI50 ([28]; read-out: GI50) | LC50 ([28]; read-out: LC50) | TGI ([28]; read-out: TGI) | GI50 ([29]; read-out: GI50) | CC50 [29, 34] | TGI ([29]; read-out: TGI) | GI50 ([30]; read-out: GI50) | CC50 [30, 34] | TGI ([30]; read-out: TGI) | GI50 ([31]; read-out: GI50) | LC50 ([31]; read-out: LC50) | TGI ([31]; read-out: TGI) | GI50 ([32]; read-out: GI50) | LC50 ([32]; read-out: LC50) | TGI ([32]; read-out: TGI) | GI50 ([33]; read-out: GI50) | CC50 [33, 34] | TGI ([33]; read-out: TGI)
102%: growth at 0.1 µM [11] | growth at 0.1 µM [13]
127%: growth at 1 µM [15]

CC(=O)Nc1cc(CCl)cc(NC(=O)c2ccc(C(=O)Nc3cccc(NC(=O)CCCN(C)C)c3)cc2)c1
91%: growth at 100 µM [24]
88%: growth at 1 µM [21]
113%: growth at 0.1 µM [8]
102%: growth at 0.1 µM [10]
109%: growth at 1 µM [18] | growth at 1 µM [19]
104%: growth at 0.01 µM [7] | growth at 1 µM [16]
96%: growth at 0.01 µM [2]
111%: growth at 0.1 µM [11]
70%: growth at 1 µM [15]
103%: growth at 0.1 µM [14] | growth at 1 µM [17]
97%: growth at 0.01 µM [1]
106%: growth at 0.01 µM [4] | growth at 0.01 µM [6] | growth at 1 µM [20]
101%: growth at 0.1 µM [9]
93%: growth at 0.01 µM [3] | growth at 100 µM [23]
94%: growth at 0.1 µM [13]
37.8 µM: GI50 ([28]; read-out: GI50)
> 100 µM: GI50 ([25]; read-out: GI50) | CC50 [25, 34] | TGI ([25]; read-out: TGI) | GI50 ([25]; read-out: pGI50 (converted)) | CC50 [25, 35] | TGI ([25]; read-out: pTGI) | GI50 ([26]; read-out: GI50) | CC50 [26, 34] | TGI ([26]; read-out: TGI) | GI50 ([26]; read-out: pGI50 (converted)) | CC50 [26, 35] | TGI ([26]; read-out: pTGI) | GI50 ([27]; read-out: GI50) | CC50 [27, 34] | TGI ([27]; read-out: TGI) | GI50 ([27]; read-out: pGI50 (converted)) | CC50 [27, 35] | TGI ([27]; read-out: pTGI) | LC50 ([28]; read-out: LC50) | TGI ([28]; read-out: TGI) | LC50 ([28]; read-out: pLC50 (converted)) | TGI ([28]; read-out: pTGI) | GI50 ([29]; read-out: GI50) | CC50 [29, 34] | TGI ([29]; read-out: TGI) | GI50 ([29]; read-out: pGI50 (converted)) | CC50 [29, 35] | TGI ([29]; read-out: pTGI) | GI50 ([30]; read-out: GI50) | CC50 [30, 34] | TGI ([30]; read-out: TGI) | GI50 ([30]; read-out: pGI50 (converted)) | CC50 [30, 35] | TGI ([30]; read-out: pTGI) | GI50 ([31]; read-out: GI50) | LC50 ([31]; read-out: LC50) | TGI ([31]; read-out: TGI) | GI50 ([31]; read-out: pGI50 (converted)) | LC50 ([31]; read-out: pLC50 (converted)) | TGI ([31]; read-out: pTGI) | GI50 ([32]; read-out: GI50) | LC50 ([32]; read-out: LC50) | TGI ([32]; read-out: TGI) | GI50 ([32]; read-out: pGI50 (converted)) | LC50 ([32]; read-out: pLC50 (converted)) | TGI ([32]; read-out: pTGI) | GI50 ([33]; read-out: GI50) | CC50 [33, 34] | TGI ([33]; read-out: TGI) | GI50 ([33]; read-out: pGI50 (converted)) | CC50 [33, 35] | TGI ([33]; read-out: pTGI)
98%: growth at 0.1 µM [12]
-70%: growth at 100 µM [22]
99%: growth at 0.01 µM [5]
38 µM: GI50 ([28]; read-out: pGI50 (converted))
